From ChEMBL document CHEMBL5608188, “Discovery of N'-benzyl-3-chloro-N-((1S,3R,4R)-3-((dimethylamino)methyl)-4-hydroxy-4-(3-methoxyphenyl)cyclohexyl)benzenesulfonamide as a novel selective KOR ligand” (Eur J Med Chem, 2024)
Active and inactive are the calls of the source. No cut-off for these calls is given here.

How the values were obtained:
[1] = target: T1, Kappa-type opioid receptor (Homo sapiens, UniProt P41145); experiment: Displacement of [3H] U69593 from human kappa-opioid receptor extracted from CHO cell membrane at 0.1 uM by liquid scintillation counting analysis relative to control; format: cell membranes
[2] = target: Mu-type opioid receptor (Rattus norvegicus) (UniProt P33535); experiment: Displacement of [3H] DAMGO from rat mu-opioid receptor extracted from CHO cell membrane at 0.1 uM by liquid scintillation counting analysis relative to control; format: cell membranes
[3] = target: Delta-type opioid receptor (Rattus norvegicus) (UniProt P33533); experiment: Displacement of [3H] DPDPE from rat delta-opioid receptor extracted from CHO cell membrane at 0.1 uM by liquid scintillation counting analysis relative to control; format: cell membranes
[4] = Metabolic stability in mouse liver assessed as intrinsic clearance at 1 uM measured upto 60 mins in presence of NADPH by LC-MS/MS analysis; format: ADME, tissue-based; details: read-out: CLH
[5] = Metabolic stability in mouse liver microsomes assessed as intrinsic clearance at 1 uM measured upto 60 mins in presence of NADPH by LC-MS/MS analysis; format: ADME, Microsome; details: read-out: CLH
[6] = Metabolic stability in mouse liver microsomes assessed as half life at 1 uM measured upto 60 mins in presence of NADPH by LC-MS/MS analysis; format: ADME, Microsome
[7] = target: T1, Kappa-type opioid receptor; experiment: Displacement of [3H] U69593 from human kappa-opioid receptor extracted from CHO cell membrane assessed as inhibition constant by liquid scintillation counting analysis; format: cell membranes
Mu-type opioid receptor = Mu-type opioid receptor (Rattus norvegicus, UniProt P33535); experiment: (§1) Displacement of [3H] DAMGO from rat mu-opioid receptor extracted from CHO cell membrane assessed as inhibition constant by liquid scintillation counting analysis; format: cell membranes
[8] = target: Delta-type opioid receptor (Rattus norvegicus, UniProt P33533); experiment: (§2) Displacement of [3H] DPDPE from rat delta-opioid receptor extracted from CHO cell membrane assessed as inhibition constant by liquid scintillation counting analysis; format: cell membranes
[9] = Drug uptake in mouse plasma; format: ADME, cell-free
[10] = Cmax in ICR mouse at 2 mg/kg, iv measured after 24 hrs; format: ADME, organism-based; details: in vivo
[11] = AUC (0 to infinity) in ICR mouse at 2 mg/kg, iv measured after 24 hrs; format: ADME, organism-based; details: in vivo
[12] = Half-life in ICR mouse at 2 mg/kg, iv measured after 24 hrs; format: ADME, organism-based; details: in vivo
[13] = AUC (0 to t) in ICR mouse at 5 mg/kg, po measured after 24 hrs; format: ADME, organism-based; details: in vivo
[14] = Toxicity in male Kunming mouse assessed as effect on sedation at 1.3 to 10 mg/kg, IP administered for 30 mins and measured after 1 hrs by open field test; format: organism-based; details: in vivo, 1.5 h, dose 1.3-10 mg/kg, time 90 min
[15] = Metabolic stability in mouse liver microsomes assessed as parent compound remaining at 1 uM measured after 60 min in presence of NADPH by LC-MS/MS analysis; format: ADME, Microsome; details: read-out: Stability
[16] = target: Delta-type opioid receptor (Rattus norvegicus) (UniProt P33533); experiment: as §2; format: cell membranes
[17] = Half-life in ICR mouse at 5 mg/kg, po measured after 24 hrs; format: ADME, organism-based; details: in vivo
[18] = Metabolic stability in mouse liver microsomes assessed as parent compound remaining at 1 uM measured after 5 min in presence of NADPH by LC-MS/MS analysis; format: ADME, Microsome; details: read-out: Stability
[19] = AUC (0 to infinity) in ICR mouse at 5 mg/kg, po measured after 24 hrs; format: ADME, organism-based; details: in vivo
[20] = Oral bioavailability in ICR mouse at 5 mg/kg measured after 24 hrs; format: ADME, organism-based; details: in vivo
[21] = Metabolic stability in mouse liver microsomes assessed as parent compound remaining at 1 uM measured after 15 min in presence of NADPH by LC-MS/MS analysis; format: ADME, Microsome; details: read-out: Stability
[22] = Clearance in ICR mouse at 2 mg/kg, iv measured after 24 hrs; format: ADME, organism-based; details: in vivo
Mus musculus [23] = experiment: Antinociceptive activity in acetic acid induced female Kunming mouse model assessed as reduction in number of torsions preadministered with nor-BNI for 24 hrs followed by compound administration for 30 mins and measured after 15 mins of acetic acid administration by abdominal contraction test; format: functional, organism-based; details: time 45.0 min
[24] = AUC (0 to t) in ICR mouse at 2 mg/kg, iv measured after 24 hrs; format: ADME, organism-based; details: in vivo
[25] = Tmax in ICR mouse at 5 mg/kg, po measured after 24 hrs; format: ADME, organism-based; details: in vivo
Mus musculus [26] = experiment: Antinociceptive activity in acetic acid induced female Kunming mouse model assessed as reduction in number of torsions preadministered for 30 mins followed by acetic acid administration and measured after 15 mins by abdominal contraction test; format: functional; details: 0.75 h, time 45 min
[27] = Cmax in ICR mouse at 5 mg/kg, po measured after 24 hrs; format: ADME, organism-based; details: in vivo
[28] = Tmax in ICR mouse at 2 mg/kg, iv measured after 24 hrs; format: ADME, organism-based; details: in vivo
[29] = Metabolic stability in mouse liver microsomes assessed as parent compound remaining at 1 uM measured after 30 min in presence of NADPH by LC-MS/MS analysis; format: ADME, Microsome; details: read-out: Stability
[30] = target: Mu-type opioid receptor (Rattus norvegicus) (UniProt P33535); experiment: as §1; format: cell membranes
[31] = target: T1, Kappa-type opioid receptor; experiment: Binding affinity to human kappa-opioid receptor extracted from CHO cell membrane assessed as inhibition constant incubated for 60 mins in presence of [3H]U69593 by radioligand binding assay; format: cell membranes

Delta-type opioid receptor (Rattus norvegicus), sequence (P33533 whole entry): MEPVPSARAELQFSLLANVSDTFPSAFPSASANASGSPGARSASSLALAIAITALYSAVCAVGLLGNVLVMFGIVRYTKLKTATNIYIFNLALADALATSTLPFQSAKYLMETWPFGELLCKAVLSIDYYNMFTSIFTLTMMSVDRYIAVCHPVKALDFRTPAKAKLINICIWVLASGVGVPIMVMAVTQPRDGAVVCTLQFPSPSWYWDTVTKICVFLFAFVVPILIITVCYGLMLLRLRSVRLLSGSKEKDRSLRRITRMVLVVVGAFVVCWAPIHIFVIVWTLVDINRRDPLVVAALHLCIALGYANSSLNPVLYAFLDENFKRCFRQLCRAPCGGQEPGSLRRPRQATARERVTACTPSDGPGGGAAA
T1 sequence (P41145 whole entry): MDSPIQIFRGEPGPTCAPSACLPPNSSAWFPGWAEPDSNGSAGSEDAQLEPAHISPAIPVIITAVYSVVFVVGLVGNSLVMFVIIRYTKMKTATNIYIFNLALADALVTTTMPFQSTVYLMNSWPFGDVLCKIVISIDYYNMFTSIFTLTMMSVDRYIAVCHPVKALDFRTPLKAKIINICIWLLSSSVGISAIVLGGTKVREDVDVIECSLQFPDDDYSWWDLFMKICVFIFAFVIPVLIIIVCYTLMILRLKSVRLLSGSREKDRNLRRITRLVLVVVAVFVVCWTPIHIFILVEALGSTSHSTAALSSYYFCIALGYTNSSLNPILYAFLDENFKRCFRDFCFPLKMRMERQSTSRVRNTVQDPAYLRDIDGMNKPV
Mu-type opioid receptor (Rattus norvegicus), sequence (P33535 whole entry): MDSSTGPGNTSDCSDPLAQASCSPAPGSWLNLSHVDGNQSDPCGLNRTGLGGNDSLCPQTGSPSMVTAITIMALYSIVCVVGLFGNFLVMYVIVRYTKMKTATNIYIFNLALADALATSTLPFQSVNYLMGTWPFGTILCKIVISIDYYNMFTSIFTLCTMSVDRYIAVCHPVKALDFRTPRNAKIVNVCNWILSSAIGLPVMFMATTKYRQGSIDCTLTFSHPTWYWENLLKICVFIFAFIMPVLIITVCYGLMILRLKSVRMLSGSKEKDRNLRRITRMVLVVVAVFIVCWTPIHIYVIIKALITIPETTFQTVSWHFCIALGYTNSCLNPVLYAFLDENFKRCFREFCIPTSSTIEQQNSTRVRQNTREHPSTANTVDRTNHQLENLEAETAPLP
Delta-type opioid receptor, sequence (P33533 whole entry): as the sequence (P33533 whole entry) above
Mu-type opioid receptor, sequence (P33535 whole entry): as the sequence (P33535 whole entry) above

COc1cccc(C2(O)CCCCC2CN(C)C)c1 (centres undefined)
inhibition [1]: 0% | inhibition [2]: 6% | inhibition [3]: 0%

COc1cccc(C2(O)CCC(N(C)S(=O)(=O)c3ccccc3)CC2CN(C)C)c1 (centres undefined)
inhibition [1]: 15.3% | inhibition [2]: 38.6% | inhibition [3]: 12.9%

COc1cccc(C2(OC(=O)c3ccccc3)CCC(N(C)S(=O)(=O)Cc3cccc(Cl)c3)CC2CN(C)C)c1 (centres undefined)
inhibition [1]: 16.6% | inhibition [2]: 0% | inhibition [3]: 0%

COc1cccc(C2(O)CCC(NS(=O)(=O)c3ccccc3)CC2CN(C)C)c1 (centres undefined)
inhibition [1]: 7.2% | inhibition [2]: 11.8% | inhibition [3]: 7.51%

O=C(O)Cc1ccccc1Nc1c(Cl)cccc1Cl [DICLOFENAC]
CLint scaled at 1 µM [4]: 116 mL/min/kg | microsomal CLint at 1 µM [5]: 29.4 µL/min/mg | half-life at 1 µM [6]: 47.1 min

COc1cccc(C2(O)CCC(N(Cc3ccccc3)S(=O)(=O)c3cccs3)CC2CN(C)C)c1 (centres undefined)
inhibition [1]: 14.9% | inhibition [2]: 9.5% | inhibition [3]: 0%

COc1cccc(C2(O)CCC(NS(=O)(=O)Cc3cccc(Cl)c3)CC2CN(C)C)c1 (centres undefined)
inhibition [1]: 6.9% | inhibition [2]: 35.8% | inhibition [3]: 0%

CN(C)CC1CC(N(Cc2ccccc2)S(=O)(=O)c2cccc(Cl)c2)CCC1(O)c1cccc(O)c1.Cl (centres undefined)
Ki [7]: 3.1 nM | Ki (Mu-type opioid receptor): 18.8 nM | Ki [8]: 201 nM | Drug uptake [9]: Active | inhibition [3]: 20.7%

COc1cccc(C2(O)CCC(NS(=O)(=O)Cc3ccccc3)CC2CN(C)C)c1 (centres undefined)
inhibition [1]: 11.2% | inhibition [2]: 41.1% | inhibition [3]: 1%

COc1cccc([C@@]2(O)CC[C@H](N(Cc3ccccc3)S(=O)(=O)c3cccc(Cl)c3)C[C@@H]2CN(C)C)c1.Cl
Cmax [10]: 221 ng/mL | AUC(0-inf) [11]: 136 ng·h/mL | half-life [12]: 71.4 min | Ki [7]: 1.9 nM | CLint scaled at 1 µM [4]: 1390 mL/min/kg | AUC(0-t) at 24 h [13]: 1.34 ng·h/mL | Activity [14]: Non-Toxic | remaining at 1 h, 1 µM [15]: 4.59% | microsomal CLint at 1 µM [5]: 351 µL/min/mg | Activity [16]: inactive | Drug uptake [9]: Active | half-life [17]: 16.2 min | remaining at 5 min, 1 µM [18]: 29% | AUC(0-inf) [19]: 1.64 ng·h/mL | bioavailability [20]: 0.53% | remaining at 0.25 h, 1 µM [21]: 6.7% | clearance [22]: 246 mL/min/kg | Activity (Mus musculus [23]): inactive | half-life at 1 µM [6]: 3.95 min | inhibition [2]: 25.8% | AUC(0-t) at 24 h [24]: 131 ng·h/mL | Tmax [25]: 4.98 min | ED50 (Mus musculus [26]): 1.3 mg/kg | Cmax [27]: 3.87 ng/mL | Tmax [28]: 4.98 min | remaining at 0.5 h, 1 µM [29]: 5.89%

COc1cccc(C2(OC(=O)c3ccccc3)CCC(NS(=O)(=O)c3cccc(Cl)c3)CC2CN(C)C)c1 (centres undefined)
inhibition [1]: 30.5% | inhibition [2]: 14.4% | inhibition [3]: 0%

COc1cccc(C2(O)CCC(N(C)S(=O)(=O)c3cccs3)CC2CN(C)C)c1 (centres undefined)
inhibition [1]: 22% | inhibition [2]: 0% | inhibition [3]: 30.1%

COc1cccc(C2(O)CCC(NS(=O)(=O)c3cccc(Cl)c3)CC2CN(C)C)c1 (centres undefined)
inhibition [1]: 15% | inhibition [2]: 22.8% | inhibition [3]: 0%

COc1cccc([C@]2(O)CC[C@@H](N(Cc3ccccc3)S(=O)(=O)c3cccc(Cl)c3)C[C@H]2CN(C)C)c1
Activity [7]: inactive | Activity [30]: inactive

COc1cccc(C2(O)CCC(N(Cc3ccccc3)S(=O)(=O)c3ccccc3)CC2CN(C)C)c1 (centres undefined)
inhibition [1]: 39.7% | inhibition [2]: 14.8% | inhibition [3]: 0%

COc1cccc(C2(O)CCC(N(C)S(=O)(=O)c3cccc(Cl)c3)CC2CN(C)C)c1 (centres undefined)
inhibition [1]: 22.7% | inhibition [2]: 16.5% | inhibition [3]: 14.8%

COc1cccc(C2(O)CCC(N(Cc3ccccc3)S(=O)(=O)c3cccc(Cl)c3)CC2CN(C)C)c1 (centres undefined)
inhibition [2]: 6.7% | inhibition [3]: 0%

COc1cccc(C2(O)CCC(NS(=O)(=O)c3cccs3)CC2CN(C)C)c1 (centres undefined)
inhibition [1]: 15.2% | inhibition [2]: 1.2% | inhibition [3]: 0%

CN(C)C[C@@H]1CN(CCc2cccc(C(F)(F)F)c2)CC[C@@]1(O)c1cccc(O)c1
Ki [31]: 25.8 nM

COc1cccc(C2(OC(=O)c3ccccc3)CCC(N(C)S(=O)(=O)Cc3ccccc3)CC2CN(C)C)c1 (centres undefined)
inhibition [1]: 28.8% | inhibition [2]: 3.3% | inhibition [3]: 0%

COc1cccc(C2(OC(=O)c3ccccc3)CCC(NS(=O)(=O)c3ccccc3)CC2CN(C)C)c1 (centres undefined)
inhibition [1]: 12.9% | inhibition [2]: 18.1% | inhibition [3]: 0%
